Source: patent US20030105046A1, “Interleukin converting enzyme (ICE) and central nervous system damage” (The General Hospital Corporation, priority 1997, published 2003)

Key:
[1] = system: apoptosis in an cell-free system; details: Nicholson et al., Nature 376 (1995), read-out: Dose causing 50% inhibition of apoptosis; cited from earlier work
[2] = system: traumatic brain injury in C57BL/6 mice; experiment: Weight drop traumatic brain injury, lesion volume by TTC staining; assay type: in vivo, mouse
Description: Brain trauma experiments and lesion quantification were performed essentially as described (Chan, P. H., et al., Ann. NY Acad. Sci. 738:93-103 (1994)). Spontaneously ventilating adult mice were initially anesthetized with halothane in 70% N2O and 30% O2, and fixed in a stereotactic frame. Before trauma, an atraumatic craniectomy was performed by removing the right parietal bone posterior to the coronal, lateral to the sagittal, and anterior to the lambdoid suture. Laterally, the craniectomy was extended to the insertion of the temporalis muscle. […] A 20 g weight was dropped inside a cylinder from a height of 150 mm onto the piston (final speed v=1.70 m/s). Twenty-four hours after trauma, brains were removed and sectioned into five coronal (2 mm) slices and stained with 2% 2,3,5-triphenyl tetrazolium chloride (TTC) as described for a weight drop trauma model (Chan, P. H., et al., Ann. NY Acad. Sci. 738:93-103 (1994)). Surgical procedure as well as quantification of lesion size was performed by an investigator naive to the animal identity. Lesion volume was calculated using an image analysis system (M4, Imaging Research, St. Catherines, Ontario, Canada) from the total lesion volume integrated from the volumes of each single section, after subtracting the volume of the deficient cortex as caused by piston penetration. The volume of the piston penetration was calculated as that of a cylinder (pr^2h=3.14×1.5^2×3 mm^3=21.2 mm^3), where r is the radius of the piston, and h the depth of penetration. The trauma protocol was approved by the IACUC. The NSE-M17Z and wild-type littermate mice were bred from C57BL/6 background, and the wild-type mice used for zVAD-fink injection experiments were C57BL/6 (Taconic Farms, Germantown, N.Y.). NSE-M17Z mice were genotyped as previously described (Friedlander, R. M., et al., J. Exp. Med. 185:933-940 (1997)). zVAD-fmk (480 ng) or vehicle (DMSO 0.4%) was injected i.c.v. (2 μl; bregma −0.9 mm lateral, −0.1 mm posterior, −3.1 mm deep) 1 hour before or 1 hour after trauma.
Data are presented as mean±SEM. Statistical comparisons were made by Student's t-test. For comparison of lesion size two-way ANOVA followed by Tukey posthoc tests was applied. P<0.05 was considered statistically significant. For statistical evaluation by Student's t-test, data on OH production was log transformed.

[3] = target: Interleukin-1beta converting enzyme (ICE; caspase-1), wild-type murine, endogenous (mouse) (UniProt P29452); experiment: cell-based or functional assay
UniProt P29452, sequence (P29452 whole entry D56N): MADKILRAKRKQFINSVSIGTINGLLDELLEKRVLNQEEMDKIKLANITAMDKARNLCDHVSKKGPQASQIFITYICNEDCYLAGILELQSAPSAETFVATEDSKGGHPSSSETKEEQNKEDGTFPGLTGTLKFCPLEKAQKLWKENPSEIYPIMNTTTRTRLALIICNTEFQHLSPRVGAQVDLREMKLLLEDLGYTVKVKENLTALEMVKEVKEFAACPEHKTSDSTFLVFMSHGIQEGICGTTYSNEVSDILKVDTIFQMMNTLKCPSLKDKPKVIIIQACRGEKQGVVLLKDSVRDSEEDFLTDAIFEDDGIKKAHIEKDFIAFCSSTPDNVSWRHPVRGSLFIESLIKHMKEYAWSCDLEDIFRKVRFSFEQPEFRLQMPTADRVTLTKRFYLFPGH

Ac-DEVD-CHO
IC50 [1]: 1000 nM

N-benzyloxycarbonyl-Val-Ala-Asp-fluoromethylketone [zVAD-fink]
Total lesion volume vs. vehicle (significance) ([2]; 480 ng i.c.v. 1 hour after trauma, 24 hours following impact): not significantly different
Size of lesion in the two most anterior sections (2-6 mm) vs. vehicle ([2]; 480 ng i.c.v. 1 hour after trauma, P<0.05, n=5): significantly reduced
Reduction of total lesion volume vs. vehicle-injected mice ([2]; 480 ng i.c.v. 1 hour prior to impact, lesion assessed 24 hours following trauma): 53%
Reduction of lesion volume vs. vehicle-injected mice ([2]; 480 ng i.c.v. one hour following trauma, lesion assessed 24 hours following trauma): 19%

fused mutant ICE (C284G)-lacZ protein (M17Z), expressed in neurons of NSE-M17Z transgenic mice (from UniProt P29452 1-402)
mature IL-1β in whole brain lysates after systemic LPS challenge (ELISA specific for mature IL-1β) [3]: 74.7 % less
